Test results reported in ChEMBL document CHEMBL1268846, “Synthesis and antiproliferative evaluation of N,N-disubstituted-N'-[1-aryl-1H-pyrazol-5-yl]-methnimidamides” (2010).

Assays:
Assay type in all cases: functional
[1] = tested on: NCI-H661; assay: Growth inhibition of human NCI-H661 cells after 72 hrs by MTT assay; details: NCI-H661, 72 h
[2] = tested on: Jurkat; assay: Growth inhibition of human Jurkat cells after 72 hrs by MTT assay
[3] = Growth inhibition of human NPC-TW01 cells after 72 hrs by MTT assay; details: NPC-TW01, 72 h

Row | SMILES | GI50 [1] [µM] | GI50 [2] [µM] | GI50 [3] [µM]
1 | Cc1cccc(-n2nc(-c3ccccc3)c(C=O)c2/N=C/N(C)C)c1 | 31 | 9.7 | 8.9
2 | CN(C)/C=N/c1c(C=O)c(-c2ccccc2)nn1-c1cccc([N+](=O)[O-])c1 | 50 | > 50 | 36.7
3 | COc1ccc(-n2nc(-c3ccccc3)c(C=O)c2/N=C/N(C)C)cc1 | 33.4 | 19.7 | 20.2
4 | CN(C)/C=N/c1c(C=O)c(-c2ccc(Cl)cc2)nn1-c1ccccc1 | 8.6 | 7.9 | 8.1
5 | CCN(/C=N/c1c(C=O)c(-c2ccccc2)nn1-c1ccccc1)CC | 28.8 | 30 | 30.5
6 | O=Cc1c(-c2ccccc2)nn(-c2ccccc2)c1/N=C/N1CCCCC1 | 17.7 | 29 | 24.4
7 | CN/C=N/c1cc(-c2ccccc2)nn1-c1ccccc1 | > 50 | > 50 | > 50
8 | CN/C(C)=N/c1cc(-c2ccccc2)nn1-c1ccccc1 | > 50 | > 50 | > 50

Continued, in another order:

Row | GI50 [1] [µM] | GI50 [2] [µM] | SMILES | GI50 [3] [µM]
9 | 31.4 | 23.5 | CN(C)/C=N/c1c(C=O)c(-c2ccccc2)nn1-c1ccccc1 | 9.3
10 | 31.4 | 26.3 | CN(C)/C=N/c1c(C=O)c(-c2ccccc2)nn1-c1ccccc1Cl | 23.3
11 | 6.9 | 8.3 | CN(C)/C=N/c1c(C=O)c(-c2ccccc2)nn1-c1cccc(Cl)c1 | 6.4
12 | 6.7 | 7.3 | CN(C)/C=N/c1c(C=O)c(-c2ccccc2)nn1-c1ccc(Br)cc1 | 7.4
13 | 11.9 | 9.5 | Cc1ccc(-c2nn(-c3ccccc3)c(/N=C/N(C)C)c2C=O)cc1 | 9.7
14 | 9.9 | 12.5 | COc1ccc(-c2nn(-c3ccccc3)c(/N=C/N(C)C)c2C=O)cc1 | 27.2
15 | 42.8 | 43.5 | CN(C)/C=N/c1c(C=O)c(C(C)(C)C)nn1-c1ccccc1 | > 50
16 | 17.6 | 31.3 | O=Cc1c(-c2ccccc2)nn(-c2ccccc2)c1/N=C/N1CCCC1 | > 50
17 | > 50 | > 50 | CC/C(=N\c1cc(-c2ccccc2)nn1-c1ccccc1)NC | > 50
18 | 35.1 | > 50 | C/C(=N\c1cc(-c2ccccc2)nn1-c1ccccc1)N(C)C | > 50
19 | 46.7 | 36.1 | CN(C)/C(=N/c1cc(-c2ccccc2)nn1-c1ccccc1)c1ccccc1 | 20.8
